Data: patent publication US20060173015A1, “Cyclohexyldiamines as selective alpha 1a/1d adrenoreceptor antagonists for the treatment of benign prostatic hypertrophy and lower urinary tract symptoms” (priority 2004, published 2006)
Like-named read-outs stand apart in the source and are kept apart here.

Legend:
α1b-AR = target: T1, α1b-AR (Homo sapiens, UniProt P35368); assay: α1-Adrenergic receptor radio-ligand (125I-HEAT) binding assay, α1b subtype; conditions: Receptor Binding, Ki α1b-AR, COS-7 cell membranes, 125I-HEAT
T1 sequence (P35368 1-520): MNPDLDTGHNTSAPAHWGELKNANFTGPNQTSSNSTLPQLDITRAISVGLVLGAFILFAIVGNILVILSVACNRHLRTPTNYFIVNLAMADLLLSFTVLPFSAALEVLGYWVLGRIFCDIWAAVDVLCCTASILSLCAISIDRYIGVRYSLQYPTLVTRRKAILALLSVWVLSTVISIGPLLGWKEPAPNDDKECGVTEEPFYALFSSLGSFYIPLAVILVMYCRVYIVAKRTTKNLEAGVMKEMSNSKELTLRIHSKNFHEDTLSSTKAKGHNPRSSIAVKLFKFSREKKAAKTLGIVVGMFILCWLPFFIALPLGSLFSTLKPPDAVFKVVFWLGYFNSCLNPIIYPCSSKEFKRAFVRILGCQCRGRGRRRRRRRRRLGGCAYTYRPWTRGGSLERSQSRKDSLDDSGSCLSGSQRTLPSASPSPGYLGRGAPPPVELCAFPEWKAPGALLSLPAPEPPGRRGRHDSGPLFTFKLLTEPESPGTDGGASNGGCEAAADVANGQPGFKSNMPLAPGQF

α1d-AR = target: T2, α1d-AR (Homo sapiens, UniProt P25100); assay: α1-Adrenergic receptor radio-ligand (125I-HEAT) binding assay, α1d subtype
T2 construct: expressed in transfected cells; host or cells: COS-7
T2 sequence (P25100 1-572): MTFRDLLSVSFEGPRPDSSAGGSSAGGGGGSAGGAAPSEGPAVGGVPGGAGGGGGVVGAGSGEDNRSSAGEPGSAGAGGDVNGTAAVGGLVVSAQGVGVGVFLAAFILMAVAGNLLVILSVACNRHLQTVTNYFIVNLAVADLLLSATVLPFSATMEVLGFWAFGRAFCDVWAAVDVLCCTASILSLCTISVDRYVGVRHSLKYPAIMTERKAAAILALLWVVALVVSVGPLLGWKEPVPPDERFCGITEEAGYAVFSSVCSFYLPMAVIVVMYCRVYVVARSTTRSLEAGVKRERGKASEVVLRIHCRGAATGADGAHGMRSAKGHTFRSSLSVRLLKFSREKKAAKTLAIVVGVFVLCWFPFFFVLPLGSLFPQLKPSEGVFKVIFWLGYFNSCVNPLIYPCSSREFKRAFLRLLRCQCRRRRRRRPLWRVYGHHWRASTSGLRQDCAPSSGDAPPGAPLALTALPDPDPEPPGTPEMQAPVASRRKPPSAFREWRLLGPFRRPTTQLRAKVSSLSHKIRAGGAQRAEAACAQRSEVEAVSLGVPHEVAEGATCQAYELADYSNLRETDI
Description: α1-Adrenergic Receptor Binding Assay: Preparation of COS Cell Membranes
Membranes were prepared from COS-7 cells that had been transfected with one of the three α1-AR subtypes by the following method. COS cells from ten 100 mm tissue culture plates were scraped into 5 mL TE (50 mM Tris-HCl, 5 mM EDTA, pH 7.4). The cell suspension was disrupted with a Brinkman Polytron, setting 8, for 10 sec. The disrupted cells were centrifuged at 1000×g for 10 min at 4° C. Supernatants were centrifuged at 34,500×g for 20 min at 4° C. The membrane pellets were suspended in 2 mL TNE (50 mM Tris-HCl, 5 mM EDTA, 150 mM NaCl, pH7.4). An aliquot of the membrane suspension was stored at −70° C. until use. The protein concentration was determined using the BioRad DC protein assay kit following membrane solubilization with Triton X-100.
Radio-Ligand Binding Assay
Triplicate determinations of radio-ligand binding in the presence of increasing: concentrations of testing compound were made. The reagents were added to 96-well polypropylene plate wells using the Biomek 1000 robot (Beckman Instruments). […] The plate was incubated at rt for 1 hr. The contents of the wells were filtered through a GF/C membrane Unifilter plate (Packard Instruments) using the Packard Filtermate cell harvester. The filter plates were dried in a vacuum oven for 30 min at 40° C. 25 μL Microscint 20 liquid scintillation fluid (Packard Instuments) was added to each well. The radioactive content was analyzed in the TopCount microplate scintillation counter (Packard Instruments).

[1] = COS-7 cell membranes, 125I-HEAT, read-out: Receptor Binding, Ki α1d-AR
[2] = Receptor Binding, Ki α1d-AR, COS-7 cell membranes, 125I-HEAT

CC(C)Oc1ccccc1N1CCN([C@H]2CC[C@@H](NS(=O)(=O)c3cccc(C(F)(F)F)c3)CC2)CC1 [Cpd 2, N-cis-{4-[4-(2-Isopropoxy-phenyl)-piperazin-1-yl]-cyclohexyl}-3-trifluoromethyl-benzenesulfonamide]
Ki (α1b-AR): 276 nM

CC(C)Oc1ccccc1N1CCN([C@H]2CC[C@@H](NS(=O)(=O)c3ccc(S(C)(=O)=O)cc3)CC2)CC1 [Cpd 6, N-cis-{4-[4-(2-Isopropoxy-phenyl)-piperazin-1-yl]-cyclohexyl}-4-methanesulfonyl-benzenesulfonamide]
Ki (α1b-AR): 195 nM | Ki (α1d-AR; [1]): 3.4 nM

COc1ccc(S(=O)(=O)N[C@H]2CC[C@@H](N3CCN(c4ccccc4OC(C)C)CC3)CC2)cc1OC [Cpd 7, N-cis-{4-[4-(2-Isopropoxy-phenyl)-piperazin-1-yl]-cyclohexyl}-3,4-dimethoxy-benzenesulfonamide]
Ki (α1b-AR): 109 nM | Ki (α1d-AR): 1 nM

COc1ccc(OC)c(S(=O)(=O)N[C@H]2CC[C@@H](N3CCN(c4ccccc4OC(C)C)CC3)CC2)c1 [Cpd 8, N-cis-{4-[4-(2-Isopropoxy-phenyl)-piperazin-1-yl]-cyclohexyl}-2,5-dimethoxy-benzenesulfonamide]
Ki (α1b-AR): 167 nM | Ki (α1d-AR; [2]): 9.6 nM

CC(C)Oc1ccccc1N1CCN([C@H]2CC[C@@H](NS(=O)(=O)c3cccc(C(F)(F)F)c3)CC2)CC1 [Cpd 16, N-cis-{4-[4-(2-Isopropoxy-phenyl)-piperazin-1-yl]-cyclohexyl}-3-trifluoromethyl-benzenesulfonamide]
Ki (α1b-AR): 222 nM

CC(C)Oc1ccccc1N1CCN([C@H]2CC[C@@H](NS(=O)(=O)c3ccccc3F)CC2)CC1 [Cpd 21, 2-Fluoro-N-cis-{4-[4-(2-isopropoxy-phenyl)-piperazin-1-yl]-cyclohexyl}-benzenesulfonamide]
Ki (α1b-AR): 103 nM | Ki (α1d-AR; [2]): 2.7 nM

CC(C)Oc1ccccc1N1CCN([C@H]2CC[C@@H](NS(=O)(=O)c3cccc(Cl)c3F)CC2)CC1 [Cpd 23, 3-Chloro-2-fluoro-N-cis-{4-[4-(2-isopropoxy-phenyl)-piperazin-1-yl]-cyclohexyl}-benzenesulfonamide]
Ki (α1b-AR): 195 nM | Ki (α1d-AR; [1]): 3 nM

CC(C)Oc1ccccc1N1CCN([C@H]2CC[C@@H](NS(=O)(=O)c3ccc(Cl)cc3F)CC2)CC1 [Cpd 24, 4-Chloro-2-fluoro-N-cis-{4-[4-(2-isopropoxy-phenyl)-piperazin-1-yl]-cyclohexyl}-benzenesulfonamide]
Ki (α1b-AR): 101 nM | Ki (α1d-AR): 1.5 nM

CC(C)Oc1ccccc1N1CCN([C@H]2CC[C@@H](NS(=O)(=O)c3ccccc3C#N)CC2)CC1 [Cpd 27, 2-Cyano-N-cis-{4-[4-(2-isopropoxy-phenyl)-piperazin-1-yl]-cyclohexyl}-benzenesulfonamide]
Ki (α1b-AR): 217 nM | Ki (α1d-AR; [1]): 6.3 nM

COc1ccc(Br)cc1S(=O)(=O)N[C@H]1CC[C@@H](N2CCN(c3ccccc3OC(C)C)CC2)CC1 [Cpd 28, 5-Bromo-N-cis-{4-[4-(2-isopropoxy-phenyl)-piperazin-1-yl]-cyclohexyl}-2-methoxy-benzenesulfonamide]
Ki (α1b-AR): 42 nM | Ki (α1d-AR; [1]): 0.8 nM

CC(C)Oc1ccccc1N1CCN([C@H]2CC[C@H](NS(=O)(=O)c3cccc(C(F)(F)F)c3)CC2)CC1 [Cpd 30, N-trans-{4-[4-(2-Isopropoxy-phenyl)-piperazin-1-yl]-cyclohexyl}-3-trifluoromethyl-benzenesulfonamide]
Ki (α1b-AR): 204 nM | Ki (α1d-AR; [2]): 49 nM

CC(C)Oc1ccccc1N1CCN([C@H]2CC[C@H](NS(=O)(=O)c3ccc(S(C)(=O)=O)cc3)CC2)CC1 [Cpd 34, N-trans-{4-[4-(2-Isopropoxy-phenyl)-piperazin-1-yl]-cyclohexyl}-4-methanesulfonyl-benzenesulfonamide]
Ki (α1b-AR): 392 nM | Ki (α1d-AR; [1]): 22 nM

COc1ccc(S(=O)(=O)N[C@H]2CC[C@H](N3CCN(c4ccccc4OC(C)C)CC3)CC2)cc1OC [Cpd 35, N-trans-{4-[4-(2-Isopropoxy-phenyl)-piperazin-1-yl]-cyclohexyl}-3,4-dimethoxy-benzenesulfonamide]
Ki (α1b-AR): 126 nM | Ki (α1d-AR): 24 nM

COc1ccc(OC)c(S(=O)(=O)N[C@H]2CC[C@H](N3CCN(c4ccccc4OC(C)C)CC3)CC2)c1 [Cpd 36, N-trans-{4-[4-(2-Isopropoxy-phenyl)-piperazin-1-yl]-cyclohexyl}-2,5-dimethoxy-benzenesulfonamide]
Ki (α1b-AR): 424 nM | Ki (α1d-AR; [2]): 56 nM

CC(C)Oc1ccccc1N1CCN([C@H]2CC[C@H](NS(=O)(=O)c3cccc(C(F)(F)F)c3)CC2)CC1 [Cpd 44, N-trans-{4-[4-(2-Isopropoxy-phenyl)-piperazin-1-yl]-cyclohexyl}-3-trifluoromethyl-benzenesulfonamide]
Ki (α1b-AR): 334 nM | Ki (α1d-AR; [2]): 34.7 nM

CC(C)Oc1ccccc1N1CCN([C@H]2CC[C@H](NS(=O)(=O)c3ccccc3F)CC2)CC1 [Cpd 49, 2-Fluoro-N-trans-{4-[4-(2-isopropoxy-phenyl)-piperazin-1-yl]-cyclohexyl}-benzenesulfonamide]
Ki (α1b-AR): 385 nM | Ki (α1d-AR; [2]): 30 nM

CC(C)Oc1ccccc1N1CCN([C@H]2CC[C@H](NS(=O)(=O)c3cccc(Cl)c3F)CC2)CC1 [Cpd 51, 3-Chloro-2-fluoro-N-trans-{4-[4-(2-isopropoxy-phenyl)-piperazin-1-yl]-cyclohexyl}-benzenesulfonamide]
Ki (α1b-AR): 348 nM | Ki (α1d-AR; [1]): 24 nM

CC(C)Oc1ccccc1N1CCN([C@H]2CC[C@H](NS(=O)(=O)c3ccc(Cl)cc3F)CC2)CC1 [Cpd 52, 4-Chloro-2-fluoro-N-trans-{4-[4-(2-isopropoxy-phenyl)-piperazin-1-yl]-cyclohexyl}-benzenesulfonamide]
Ki (α1b-AR): 243 nM | Ki (α1d-AR): 19 nM

CC(C)Oc1ccccc1N1CCN([C@H]2CC[C@H](NS(=O)(=O)c3ccccc3C#N)CC2)CC1 [Cpd 55, 2-Cyano-N-trans-{4-[4-(2-isopropoxy-phenyl)-piperazin-1-yl]-cyclohexyl}-benzenesulfonamide]
Ki (α1b-AR): 31 nM | Ki (α1d-AR; [1]): 3.2 nM

COc1ccc(Br)cc1S(=O)(=O)N[C@H]1CC[C@H](N2CCN(c3ccccc3OC(C)C)CC2)CC1 [Cpd 56, 5-Bromo-N-trans-{4-[4-(2-isopropoxy-phenyl)-piperazin-1-yl]-cyclohexyl}-2-methoxy-benzenesulfonamide]
Ki (α1b-AR): 131 nM | Ki (α1d-AR; [1]): 38 nM
